Results as given in patent US20230146675A1, “PYRIMIDO[5,4-d]PYRIMIDINE DERIVATIVES AS ENT INHIBITORS FOR THE TREATMENT OF CANCERS, AND COMBINATION THEREOF WITH ADENOSINE RECEPTOR ANTAGONISTS” (ITEOS BELGIUM SA, priority 2020, published 2023).

Target: T1, human ENT1 (Homo sapiens, UniProt Q99808)
T1 sequence (Q99808 1-456): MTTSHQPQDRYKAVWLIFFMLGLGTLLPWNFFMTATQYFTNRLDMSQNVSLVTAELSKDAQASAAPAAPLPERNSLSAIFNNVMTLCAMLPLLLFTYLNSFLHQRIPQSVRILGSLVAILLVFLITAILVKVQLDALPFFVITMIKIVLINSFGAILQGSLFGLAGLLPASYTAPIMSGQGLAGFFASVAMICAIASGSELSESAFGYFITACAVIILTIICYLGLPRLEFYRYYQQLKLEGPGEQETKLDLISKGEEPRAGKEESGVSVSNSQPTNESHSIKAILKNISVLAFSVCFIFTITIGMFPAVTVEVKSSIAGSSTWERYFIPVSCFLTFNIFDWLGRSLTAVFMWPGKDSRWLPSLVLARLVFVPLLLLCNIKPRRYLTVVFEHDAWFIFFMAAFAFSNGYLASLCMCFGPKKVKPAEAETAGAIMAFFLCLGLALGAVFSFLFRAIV
Assay: ENT1 binding assay (competition with Sahenta-DY647 on JAR cells)
Design: JAR cells expressing ENT1 were bought from ATCC; host or cells: JAR cells
Details: binned IC50
How it was run: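 JAR cells were incubated with test compounds and the fluorescent ligand Sahenta-DY647 in competition. Plates were washed twice by centrifugation (4 min, 400 rcf, 4 °C). Binding potency was derived from the final fluorescence.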

| Compound | IC50 [nM] |
| --- | --- |
| COCCN(CCOC)c1nc(N2CCC(OC)CC2)c2nc(N(CCO)Cc3ccc(OC)c(OC)c3OC)nc(N3CCC(OC)CC3)c2n1 [Compound 185, 2-((6-(bis(2-methoxyethyl)amino)-4,8-bis(4-methoxypiperidin-1-yl)pyrimido[5,4-d]pyrimi<din-2-yl)(2,3,4-trimethoxybenzyl)amino)ethanol] | < 100 |
| CCCN(C)c1nc(N(CCOC)CCOC)nc2c(N3CC(O)(C(F)(F)F)C3)nc(N(CCOC)CCOC)nc12 [Compound 13, 1-(2,6-bis(bis(2-methoxyethyl)amino)-8-(methyl(propyl)amino)pyrimido[5,4-d]pyrimidin-4-yl)-3-(trifluoromethyl)azetidin-3-ol] | < 100 |
| COCCN(CCOC)c1nc(N2CCN(c3nccc(C)n3)CC2)c2nc(N(CCOC)CCOC)nc(N3CCC(OC)CC3)c2n1 [Compound 122, N2,N2,N6,N6-tetrakis(2-methoxyethyl)-4-(4-methoxypiperidin-1-yl)-8-(4-(4-methylpyrimidin-2-yl)piperazin-1-yl)pyrimido[5,4-d]pyrimidine-2,6-diamine] | 100 to 500 |
| COCCN(CCOC)c1nc(N2CCN(c3nccc(OC)n3)CC2)c2nc(N(CCOC)CCOC)nc(N3CCC(OC)CC3)c2n1 [Compound 125, N2,N2,N6,N6-tetrakis(2-methoxyethyl)-4-(4-methoxypiperidin-1-yl)-8-(4-(4-methoxypyrimidin-2-yl)piperazin-1-yl)pyrimido[5,4-d]pyrimidine-2,6-diamine] | 100 to 500 |
| COCCN(CCOC)c1nc(N2CCN(c3ncn(C)n3)CC2)c2nc(N(CCOC)CCOC)nc(N(C)Cc3cccc(C(N)=O)c3)c2n1 [Compound 249, 3-(((2,6-bis(bis(2-methoxyethyl)amino)-8-(4-(1-methyl-1H-1,2,4-triazol-3-yl)piperazin-1-yl)pyrimido[5,4-d]pyrimidin-4-yl)(methyl)amino)methyl)benzamide] | 100 to 500 |
| COCCN(CCOC)c1nc(N2CCN(C)C(=O)C2)c2nc(N(CCOC)CCOC)nc(NCc3cccc(C#N)c3)c2n1 [Compound 205, 3-(((2,6-bis(bis(2-methoxyethyl)amino)-8-(4-methyl-3-oxopiperazin-1-yl)pyrimido[5,4-d]pyrimidin-4-yl)amino)methyl)benzonitrile] | < 100 |
| COCCN(CCOC)c1nc(N2CCN(C)C(=O)C2)c2nc(N3CCN(c4ncccc4N)CC3)nc(N3CCC(OC)CC3)c2n1 [Compound 294, 4-(6-(4-(3-aminopyridin-2-yl)piperazin-1-yl)-2-(bis(2-methoxyethyl)amino)-8-(4-methoxypiperidin-1-yl)pyrimido[5,4-d]pyrimidin-4-yl)-1-methylpiperazin-2-one] | < 100 |
| COCCN(CCOC)c1nc(N2CCc3c(ncn3C)C2)c2nc(N(CCOC)CCOC)nc(N3CCN(C)C(=O)C3)c2n1 [Compound 253, 4-(2,6-bis(bis(2-methoxyethyl)amino)-8-(1-methyl-1,4,6,7-tetrahydro-5H-imidazo[4,5-c]pyridin-5-yl)pyrimido[5,4-d]pyrimidin-4-yl)-1-methylpiperazin-2-one] | 100 to 500 |
| COCCN(CCOC)c1nc(N2CCCC(F)(F)C2)c2nc(N(CCOC)CCOC)nc(N3CCCC(F)(F)C3)c2n1 [Compound 33, 4,8-bis(3,3-difluoropiperidin-1-yl)-N2,N2,N6,N6-tetrakis(2-methoxyethyl)pyrimido[5,4-d]pyrimidine-2,6-diamine] | < 100 |
| COCCCN(CCCOC)c1nc(N2CCC(OC)CC2)c2nc(N(CCCO)CCCO)nc(N3CCC(OC)CC3)c2n1 [Compound 330, 3,3′-((6-(bis(3-methoxypropyl)amino)-4,8-bis(4-methoxypiperidin-1-yl)pyrimido[5,4-d]pyrimidin-2-yl)azanediyl)bis(propan-1-ol)] | 100 to 500 |
| COCCN(CCOC)c1nc(N2CCN(C)C(=O)C2)c2nc(N(CCOC)CCOC)nc(NCc3cccc(S(C)(=O)=O)c3)c2n1 [Compound 212, 4-(2,6-bis(bis(2-methoxyethyl)amino)-8-((3-(methylsulfonyl)benzyl)amino)pyrimido[5,4-d]pyrimidin-4-yl)-1-methylpiperazin-2-one] | 500 to 1000 |

The next lines start with the values.

| IC50 [nM] | Compound |
| --- | --- |
| 100 to 500 | COCCN(CCOC)c1nc(N2CCn3ncnc3C2)c2nc(N(CCOC)CCOC)nc(N3CCS(=O)(=O)CC3)c2n1 [Compound 6, 4-(2,6-bis(bis(2-methoxyethyl)amino)-8-(5,6-dihydro-[1,2,4]triazolo[1,5-a]pyrazin-7(8H)-yl)pyrimido[5,4-d]pyrimidin-4-yl)thiomorpholine 1,1-dioxide] |
| 500 to 1000 | COCCN(CCOC)c1nc(N2CCN(c3ncccc3N)CC2)c2nc(N(CCOC)CCOC)nc(N3CCC(OC)CC3)c2n1 [Compound 121, 4-(4-(3-aminopyridin-2-yl)piperazin-1-yl)-N2,N2,N6,N6-tetrakis(2-methoxyethyl)-8-(4-methoxypiperidin-1-yl)pyrimido[5,4-d]pyrimidine-2,6-diamine] |
| 500 to 1000 | CCOC(=O)N1CCN(c2nc(N3CCC(OC)CC3)c3nc(N(CCOC)CCOC)nc(N4CCC(OC)CC4)c3n2)CC1 [Compound 31, ethyl 4-(6-(bis(2-methoxyethyl)amino)-4,8-bis(4-methoxypiperidin-1-yl)pyrimido[5,4-d]pyrimidin-2-yl)piperazine-1-carboxylate] |
| < 100 | COCCN(CCOC)c1nc(N2CCn3ncnc3C2)c2nc(N(CCOC)CCOC)nc(N3CCC(OC)CC3)c2n1 [Compound 116, 4-(5,6-dihydro-[1,2,4]triazolo[1,5-a]pyrazin-7(8H)-yl)-N2,N2,N6,N6-tetrakis(2-methoxyethyl)-8-(4-methoxypiperidin-1-yl)pyrimido[5,4-d]pyrimidine-2,6-diamine] |
| 100 to 500 | COCCN(CCOC)c1nc(N2CC[C@@H](F)C2)c2nc(N(CCOC)CCOC)nc(N3CCC(OC)CC3)c2n1 [Compound 103, (R)-4-(3-fluoropyrrolidin-1-yl)-N2,N2,N6,N6-tetrakis(2-methoxyethyl)-8-(4-methoxypiperidin-1-yl)pyrimido[5,4-d]pyrimidine-2,6-diamine] |
| 100 to 500 | COCCN(CCOC)c1nc(N2CCC(OC)CC2)c2nc(N(CCOC)CCOC)nc(N3CCC(O)CC3)c2n1 [Compound 71, 1-(2,6-bis(bis(2-methoxyethyl)amino)-8-(4-methoxypiperidin-1-yl)pyrimido[5,4-d]pyrimidin-4-yl)piperidin-4-ol] |
| 500 to 1000 | COCCN(CCOC)c1nc(N2CCC(OC)CC2)c2nc(N3CCN(S(C)(=O)=O)CC3)nc(N3CCC(OC)CC3)c2n1 [Compound 30, N,N-bis(2-methoxyethyl)-4,8-bis(4-methoxypiperidin-1-yl)-6-(4-(methylsulfonyl)piperazin-1-yl)pyrimido[5,4-d]pyrimidin-2-amine] |
| 100 to 500 | COCCN(CCn1ccnc1)c1nc(N2CCN(C)C(=O)C2)c2nc(N(CCOC)CCOC)nc(N3CCC(OC)CC3)c2n1 [Compound 285, 4-(2-((2-(1H-imidazol-1-yl)ethyl)(2-methoxyethyl)amino)-6-(bis(2-methoxyethyl)amino)-8-(4-methoxypiperidin-1-yl)pyrimido[5,4-d]pyrimidin-4-yl)-1-methylpiperazin-2-one] |
| 100 to 500 | CCN(CCN1CCCC1)c1nc(N2CCN(C)C(=O)C2)c2nc(N(CCOC)CCOC)nc(N3CCC(OC)CC3)c2n1 [Compound 267, 4-(6-(bis(2-methoxyethyl)amino)-2-(ethyl(2-(pyrrolidin-1-yl)ethyl)amino)-8-(4-methoxypiperidin-1-yl)pyrimido[5,4-d]pyrimidin-4-yl)-1-methylpiperazin-2-one] |
| 100 to 500 | COCCN(CCOC)c1nc(N2CCN(C)C(=O)C2)c2nc(N(CCOC)CCOC)nc(NCC(C)C)c2n1 [Compound 215, 4-(2,6-bis(bis(2-methoxyethyl)amino)-8-(isobutylamino)pyrimido[5,4-d]pyrimidin-4-yl)-1-methylpiperazin-2-one] |
| 100 to 500 | COCCN(CCOC)c1nc(N2CCN(c3nccs3)CC2)c2nc(N(CCO)CCO)nc(N3CCCCC3)c2n1 [Compound 38, 2,2′-((6-(bis(2-methoxyethyl)amino)-4-(piperidin-1-yl)-8-(4-(thiazol-2-yl)piperazin-1-yl)pyrimido[5,4-d]pyrimidin-2-yl)azanediyl)diethanol] |
| 500 to 1000 | COCCN(CCOC)c1nc(N2CC(=O)N3CCCC3C2)c2nc(N(CCO)CCO)nc(N3CCC(OC)CC3)c2n1 (stereo not shown) [Compound 314, 2-(6-(bis(2-hydroxyethyl)amino)-2-(bis(2-methoxyethyl)amino)-8-(4-methoxypiperidin-1-yl)pyrimido[5,4-d]pyrimidin-4-yl)hexahydropyrrolo[1,2-a]pyrazin-4(1H)-one] |
| 100 to 500 | COCCN(CCOC)c1nc(N2CCN(C)C(=O)C2)c2nc(N(CCOC)CCn3ccnc3)nc(N3CCC(OC)CC3)c2n1 [Compound 286, 4-(6-((2-(1H-imidazol-1-yl)ethyl)(2-methoxyethyl)amino)-2-(bis(2-methoxyethyl)amino)-8-(4-methoxypiperidin-1-yl)pyrimido[5,4-d]pyrimidin-4-yl)-1-methylpiperazin-2-one] |
| 100 to 500 | COCCN(CCOC)c1nc(N2CCC(OC)CC2)c2nc(N3CCn4cncc4C3)nc(N3CCN(C)C(=O)C3)c2n1 [Compound 297, 4-(6-(bis(2-methoxyethyl)amino)-2-(5,6-dihydroimidazo[1,5-a]pyrazin-7(8H)-yl)-8-(4-methoxypiperidin-1-yl)pyrimido[5,4-d]pyrimidin-4-yl)-1-methylpiperazin-2-one] |
